The results in this text go back to patent US6544756B1, “Sorbitol dehydrogenase, microorganism for producing same, process for the production thereof, method for the measurement of sorbitol and reagent for the quantitative determination therefor” (Unitika Ltd., priority 1999, dated 2003).

Common to all, as to format: biochemical
Test [1] deals with sorbitol dehydrogenase derived from Flavimonas oryzihabitans A-520 strain. Kind of test: Substrate specificity (Vmax/Km, Km) of sorbitol dehydrogenase from A-520 strain. Conditions: enzyme from Flavimonas oryzihabitans A-520; for Vmax/Km: relative to D-sorbitol taken as 100. How it is done: (§1) The sorbitol dehydrogenase of the invention has the foregoing physicochemical properties. In the present invention, the measurement of the activity of sorbitol dehydrogenase was carried out by adding an enzyme solution to a 80 mM Tris-HCl buffer (pH 9.0) containing 50 mM of D-sorbitol and 2 mM of NAD^+, slowly mixing them, and then measuring the change of absorbance at 340 nm by means of a spectrophotometer. The measurement was made at a temperature of 30° C. The amount of enzyme required to produce 1 μmol of NADH per minute was defined to be 1 unit (U).
(§2) (2) Substrate specificity: The Vmax/Km of the sorbitol dehydrogenase of the invention with respect to various substrates (relative to that with respect to D-sorbitol taken as 100) is about 40 or less for galactitol and about 3 or less for iditol, preferably about 30 or less for galactitol and about 2 or less for iditol. The Km for D-sorbitol is about 6 mM or less, preferably about 4 mM or less. Among the sorbitol dehydrogenases of the invention, the substrate specificities of those derived from Flavimonas oryzihabitans A-520 strain, Pseudomonas fluorescens A-989 strain and Pseudomonas fluorescens A-654 strain are shown in Table 2 below.
(§3) Vmax means the maximum velocity of the reaction at the saturated substrate concentration and Km means the Michaelis constant. The Vmax/Km values indicates the apparent […] of the enzyme reaction as a whole, which is generally used as an index for reflecting the substrate specificity. These values may be measured and calculated in accordance with the methods described in Chapter 8 of Biochemistry, second edition, by Albert Lehninger, 1975, Worth Publishers, Inc. or in Enzyme Structure and Mechanism, second edition, by Alan Fersht, 1984, W. H. Freeman & Co.

The subject of test [2] is sorbitol dehydrogenase derived from Pseudomonas fluorescens A-989 strain. Kind of test: Substrate specificity (Vmax/Km, Km) of sorbitol dehydrogenase from A-989 strain. Conditions: enzyme from Pseudomonas fluorescens A-989; for Vmax/Km: relative to D-sorbitol taken as 100. Here is the method: as §1, §2, §3
Test [3] concerns sorbitol dehydrogenase derived from Pseudomonas fluorescens A-654 strain. In words: Substrate specificity (Vmax/Km, Km) of sorbitol dehydrogenase from A-654 strain. The settings on record: enzyme from Pseudomonas fluorescens A-654; for Vmax/Km: relative to D-sorbitol taken as 100. Here is the method: as §1, §2, §3

Structures are written as SMILES.

For `OC[C@@H](O)[C@@H](O)[C@H](O)[C@@H](O)CO` [Sorbitol, D-sorbitol], the Km was 2500 µM in test [1], 5900 µM in test [2] and 3500 µM in test [3]. In addition, the Vmax/Km in test [1], in test [2] and in test [3] was 100% in each case.

For the compound `OC[C@@H](O)[C@H](O)[C@H](O)[C@@H](O)CO` [Galactitol], the Km in test [1] was 1900 µM; in test [2], 3100 µM; in test [3] it was 2000 µM. Moreover, the values for the Vmax/Km in test [1], in test [2] and in test [3] were 28.9%, 36.8% and 31.9%, respectively.

In the case of `OC[C@@H](O)C(O)[C@H](O)CO` [Arbitol, D-arabitol], the Vmax/Km in test [1], in test [2] and in test [3] was 0% each time.

Regarding `OC[C@@H](O)[C@H](O)[C@@H](O)CO` [Xylitol, xylitol], the Vmax/Km in test [1], in test [2] and in test [3] was 0% throughout.

For `OC[C@@H](O)[C@@H](O)[C@H](O)[C@H](O)CO` [Mannitol, D-mannitol], the Vmax/Km in test [1], in test [2] and in test [3] was 0% in each case.

Turning to `O=C[C@H](O)[C@@H](O)[C@H](O)[C@H](O)CO` [D-Glucose, D-glucose], the Vmax/Km in test [1], in test [2] and in test [3] was 0% each time.

Consider `OC[C@H](O)[C@@H](O)[C@H](O)[C@@H](O)CO` [Iditol, L-iditol], for which the Vmax/Km came to 1.99% in test [1], 2.78% in test [2] and 1.55% in test [3].
